Laboratory results as given in ChEMBL document CHEMBL1126816, “Inhibition of human leukocyte elastase. 6. Inhibition by 6-substituted penicillin esters” (Bioorg Med Chem Lett, 1993).

Target: T1, Neutrophil elastase (Homo sapiens, UniProt P08246)
T1 sequence (P08246 whole entry): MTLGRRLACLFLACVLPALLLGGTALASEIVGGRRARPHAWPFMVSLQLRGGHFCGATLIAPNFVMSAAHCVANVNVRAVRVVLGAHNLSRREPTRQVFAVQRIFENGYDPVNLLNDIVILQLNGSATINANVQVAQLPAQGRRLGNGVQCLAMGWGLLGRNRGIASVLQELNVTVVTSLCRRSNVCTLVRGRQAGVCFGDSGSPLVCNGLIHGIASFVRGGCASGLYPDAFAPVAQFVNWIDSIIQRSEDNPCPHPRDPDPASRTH
Assay: Inhibitory concentration required against Human Leukocyte Elastase (HLE) for 50% reduction in rate of hydrolysis of (suc-Ala-Ala-Pro-Ala-p-NA) peptide;compound was inactive

With `CC1(C)[C@H](C(=O)OCc2ccccc2)N2C(=O)[C@@H](NC(=O)C(F)(F)F)[C@H]2S1(=O)=O` the IC50 was 2 µM.

Target: T1, Neutrophil elastase
Assay: Inhibitory concentration required against Human Leukocyte Elastase (HLE) for 50% reduction in rate of hydrolysis of (suc-Ala-Ala-Pro-Ala-p-NA) peptide

Point of comparison: `Cc1ccc(S(=O)(=O)O[C@H]2C(=O)N3[C@@H](C(=O)OCc4ccccc4)C(C)(C)S(=O)(=O)[C@H]23)cc1`, IC50 0.05 µM. Against it:
- C[C@H](OC(=O)NCc1ccccc1)[C@H]1C(=O)N2[C@@H](C(=O)OCc3ccccc3)C(C)(C)S(=O)(=O)[C@H]12 — 140-fold higher, 7 µM
- C[C@@H](OC(=O)NCc1ccccc1)[C@@H]1C(=O)N2[C@@H](C(=O)OCc3ccccc3)C(C)(C)S(=O)(=O)[C@H]12 — 200-fold higher, 10 µM
- C[C@@H](OC(=O)NCc1ccccc1)[C@H]1C(=O)N2[C@@H](C(=O)OCc3ccccc3)C(C)(C)S(=O)(=O)[C@H]12 — 14-fold higher, 0.7 µM
- C[C@H](OC(=O)NCc1ccccc1)[C@@H]1C(=O)N2[C@@H](C(=O)OCc3ccccc3)C(C)(C)S(=O)(=O)[C@H]12 — 6-fold higher, 0.3 µM
- CC1(C)[C@H](C(=O)OCc2ccccc2)N2C(=O)[C@H](Cl)[C@H]2S1(=O)=O — 280-fold higher, 14 µM
- CO[C@H]1C(=O)N2[C@@H](C(=O)OC(C)(C)C)C(C)(C)S(=O)(=O)[C@H]12 — higher, > 20 µM
- CC1(C)[C@H](C(=O)OCC(F)(F)F)N2C(=O)[C@H](NC(=O)C(F)(F)F)[C@H]2S1(=O)=O — 2-fold higher, 0.1 µM
- CC1(C)S[C@@H]2[C@@H](NC(=O)C(F)(F)F)C(=O)N2[C@H]1C(=O)OCc1ccccc1 — 80-fold higher, 4 µM
- CC(=O)O[C@H]1C(=O)N2[C@@H](C(=O)OCc3ccccc3)C(C)(C)S(=O)(=O)[C@H]12 — 4-fold higher, 0.2 µM
- CC(=O)O[C@H]1C(=O)N2[C@@H](C(=O)OCc3ccccc3)C(C)(C)[S+]([O-])[C@@H]12 (stereo not given in full) — 100-fold higher, 5 µM
- CC1(C)[C@H](C(=O)OCc2ccccc2)N2C(=O)[C@H](OC(=O)Cc3ccccc3)[C@H]2S1(=O)=O — 80-fold higher, 4 µM
- CC1(C)[C@H](C(=O)OCC(F)(F)F)N2C(=O)[C@@H](NC(=O)C(F)(F)F)[C@H]2S1(=O)=O — 60-fold higher, 3 µM
- CC1(C)[C@H](C(=O)OCc2ccccc2)N2C(=O)[C@H](OCc3ccccc3)[C@H]2S1(=O)=O — 80-fold higher, 4 µM
- COC(=O)[C@@H]1N2C(=O)[C@H](OC)[C@H]2S(=O)(=O)C1(C)C — 400-fold higher, 20 µM
- CCO[C@H]1C(=O)N2[C@@H](C(=O)OCc3ccccc3)C(C)(C)S(=O)(=O)[C@H]12 — 40-fold higher, 2 µM
- CO[C@@]1(NC(=O)C(F)(F)F)C(=O)N2[C@@H](C(=O)OCc3ccccc3)C(C)(C)S(=O)(=O)[C@@H]21 — 180-fold higher, 9 µM
- CN(C(=O)C(F)(F)F)[C@@H]1C(=O)N2[C@@H](C(=O)OCc3ccccc3)C(C)(C)S(=O)(=O)[C@H]12 — 14-fold higher, 0.7 µM
- CC1(C)[C@H](C(=O)OCc2ccccc2)N2C(=O)[C@H](NC(=O)C(F)(F)F)[C@H]2S1(=O)=O — 3-fold higher, 0.15 µM
- CC1(C)S[C@@H]2[C@H](NC(=O)C(F)(F)F)C(=O)N2[C@H]1C(=O)OCc1ccccc1 — 240-fold higher, 12 µM
- CC1(C)[C@H](C(=O)OCc2ccccc2)N2C(=O)[C@@](C)(NC(=O)C(F)(F)F)[C@H]2S1(=O)=O — higher, > 20 µM
- CC1(C)[C@H](C(=O)OCc2ccccc2)N2C(=O)[C@@H](COC(=O)NCc3ccccc3)[C@H]2S1(=O)=O — 14-fold higher, 0.7 µM
- CC1(C)[C@H](C(=O)OCc2ccccc2)N2C(=O)[C@H](OC(=O)COc3ccccc3)[C@H]2S1(=O)=O — 100-fold higher, 5 µM
- CC1(C)[C@H](C(=O)OCc2ccccc2)N2C(=O)[C@H](COC(=O)NCc3ccccc3)[C@H]2S1(=O)=O — 80-fold higher, 4 µM
- CC(=O)O[C@H]1C(=O)N2[C@@H]1SC(C)(C)[C@@H]2C(=O)OCc1ccccc1 — 200-fold higher, 10 µM
- CO[C@H]1C(=O)N2[C@@H](C(=O)OCC(F)(F)F)C(C)(C)S(=O)(=O)[C@H]12 — 80-fold higher, 4 µM
- CN(C(=O)C(F)(F)F)[C@H]1C(=O)N2[C@@H](C(=O)OCc3ccccc3)C(C)(C)S(=O)(=O)[C@H]12 — 4-fold higher, 0.2 µM
- CO[C@]1(NC(=O)C(F)(F)F)C(=O)N2[C@@H](C(=O)OCc3ccccc3)C(C)(C)S(=O)(=O)[C@@H]21 — 16-fold higher, 0.8 µM
- CC[C@@]1(NC(=O)C(F)(F)F)C(=O)N2[C@@H](C(=O)OCc3ccccc3)C(C)(C)S(=O)(=O)[C@@H]21 — 60-fold higher, 3 µM
